Data taken from ChEMBL document CHEMBL2440076, “New triarylpyrazoles as broad-spectrum anticancer agents: design, synthesis, and biological evaluation” (Eur J Med Chem, 2013).

Columns and labels:
Format in all cases: functional
KM12 = experiment: Growth inhibition of human KM12 cells assessed as cell growth at 10^-7 M after 48 hrs by sulforhodamine B assay; settings: KM12, 48 h, read-out: Activity
SR = experiment: Growth inhibition of human SR cells assessed as cell growth at 10^-7 M after 48 hrs by sulforhodamine B assay; settings: read-out: Activity
MOLT-4 [1] = experiment: Growth inhibition of human MOLT4 cells assessed as cell growth at 10^-7 M after 48 hrs by sulforhodamine B assay; settings: MOLT-4, 48 h, read-out: Activity
HL-60(TB) = experiment: Growth inhibition of human HL-60(TB) cells assessed as cell growth at 10^-7 M after 48 hrs by sulforhodamine B assay; settings: HL-60, 48 h, read-out: Activity
MDA-MB-231 = experiment: Growth inhibition of human MDA-MB-231 cells assessed as cell growth at 10^-8 M after 48 hrs by sulforhodamine B assay; settings: MDA-MB-231, 48 h, read-out: Activity
Malme-3M = experiment: Growth inhibition of human MALME-3M cells assessed as cell growth at 10^-4 M after 48 hrs by sulforhodamine B assay; settings: read-out: Activity
SF-295 = experiment: Growth inhibition of human SF295 cells assessed as cell growth at 10^-4 M after 48 hrs by sulforhodamine B assay; settings: SF-295, 48 h, read-out: Activity
OVCAR-5 [2] = experiment: Growth inhibition of human OVCAR5 cells assessed as cell growth at 10^-8 M after 48 hrs by sulforhodamine B assay; settings: OVCAR-5, 48 h, read-out: Activity
SK-MEL-2 = experiment: Growth inhibition of human SK-MEL-2 cells assessed as cell growth at 10^-8 M after 48 hrs by sulforhodamine B assay; settings: SK-MEL-2, 48 h, read-out: Activity
LOX IMVI = experiment: Growth inhibition of human LOXIMVI cells assessed as cell growth at 10^-8 M after 48 hrs by sulforhodamine B assay; settings: read-out: Activity
SNB-19 = experiment: Growth inhibition of human SNB19 cells assessed as cell growth at 10^-8 M after 48 hrs by sulforhodamine B assay; settings: SNB-19, 48 h, read-out: Activity
HT-29 = experiment: Growth inhibition of human HT-29 cells assessed as cell growth at 10^-8 M after 48 hrs by sulforhodamine B assay; settings: HT-29, 48 h, read-out: Activity
[3] = Growth inhibition of human HCC2998 cells assessed as cell growth at 10^-8 M after 48 hrs by sulforhodamine B assay; settings: HCC 2998, 48 h, read-out: Activity
HOP-62 = experiment: Growth inhibition of human HOP62 cells assessed as cell growth at 10^-8 M after 48 hrs by sulforhodamine B assay; settings: HOP-62, 48 h, read-out: Activity
RPMI-8226 = experiment: Growth inhibition of human RPMI8226 cells assessed as cell growth at 10^-4 M after 48 hrs by sulforhodamine B assay; settings: RPMI-8226, 48 h, read-out: Activity
DU-145 [4] = experiment: Growth inhibition of human DU145 cells assessed as cell growth at 10^-5 M after 48 hrs by sulforhodamine B assay; settings: DU-145, 48 h, read-out: Activity
ACHN = experiment: Growth inhibition of human ACHN cells assessed as cell growth at 10^-5 M after 48 hrs by sulforhodamine B assay; settings: read-out: Activity
[5] = Growth inhibition of human NCI-ADR-RES cells assessed as cell growth at 10^-5 M after 48 hrs by sulforhodamine B assay; settings: read-out: Activity
SK-MEL-5 = experiment: Growth inhibition of human SK-MEL-5 cells assessed as cell growth at 10^-5 M after 48 hrs by sulforhodamine B assay; settings: SK-MEL-5, 48 h, read-out: Activity
SF-268 [6] = experiment: Growth inhibition of human SF268 cells assessed as cell growth at 10^-5 M after 48 hrs by sulforhodamine B assay; settings: SF-268, 48 h, read-out: Activity
SW-620 = experiment: Growth inhibition of human SW620 cells assessed as cell growth at 10^-5 M after 48 hrs by sulforhodamine B assay; settings: SW-620, 48 h, read-out: Activity
NCI-H23 = experiment: Growth inhibition of human NCI-H23 cells assessed as cell growth at 10^-5 M after 48 hrs by sulforhodamine B assay; settings: NCI-H23, 48 h, read-out: Activity
CCRF-CEM = experiment: Growth inhibition of human CCRF-CEM cells assessed as cell growth at 10^-5 M after 48 hrs by sulforhodamine B assay; settings: read-out: Activity
SF-268 [7] = experiment: Growth inhibition of human SF268 cells assessed as cell growth at 10^-6 M after 48 hrs by sulforhodamine B assay; settings: SF-268, 48 h, read-out: Activity
A549 = experiment: Growth inhibition of human A549/ATCC cells assessed as cell growth at 10^-6 M after 48 hrs by sulforhodamine B assay; settings: A549, 48 h, read-out: Activity
MOLT-4 [8] = experiment: Growth inhibition of human MOLT4 cells assessed as cell growth at 10^-6 M after 48 hrs by sulforhodamine B assay; settings: MOLT-4, 48 h, read-out: Activity
PC-3 = experiment: Growth inhibition of human PC3 cells assessed as cell growth at 3X10'-8 M after 48 hrs by sulforhodamine B assay; settings: PC-3, 48 h, read-out: Activity
OVCAR-5 [9] = experiment: Growth inhibition of human OVCAR5 cells assessed as cell growth at 3X10'-8 M after 48 hrs by sulforhodamine B assay; settings: OVCAR-5, 48 h, read-out: Activity
SK-MEL-28 = experiment: Growth inhibition of human SK-MEL-28 cells assessed as cell growth at 3X10'-8 M after 48 hrs by sulforhodamine B assay; settings: SK-MEL-28, 48 h, read-out: Activity
NCI-H460 = experiment: Growth inhibition of human NCI-H460 cells assessed as cell growth at 3X10'-8 M after 48 hrs by sulforhodamine B assay; settings: NCI-H460, 48 h, read-out: Activity
BT-549 = experiment: Growth inhibition of human BT549 cells assessed as cell growth at 3X10'-9 M after 48 hrs by sulforhodamine B assay; settings: BT-549, 48 h, read-out: Activity
DU-145 [10] = experiment: Growth inhibition of human DU145 cells assessed as cell growth at 3X10'-9 M after 48 hrs by sulforhodamine B assay; settings: DU-145, 48 h, read-out: Activity
SK-OV-3 = experiment: Growth inhibition of human SKOV3 cells assessed as cell growth at 3X10'-9 M after 48 hrs by sulforhodamine B assay; settings: SK-OV-3, 48 h, read-out: Activity
UACC-62 = experiment: Growth inhibition of human UACC62 cells assessed as cell growth at 3X10'-5 M after 48 hrs by sulforhodamine B assay; settings: UACC-62, 48 h, read-out: Activity
MCF7 = experiment: Growth inhibition of human MCF7 cells assessed as cell growth at 3X10'-6 M after 48 hrs by sulforhodamine B assay; settings: MCF7, 48 h, read-out: Activity
MOLT-4 [11] = experiment: Growth inhibition of human MOLT4 cells assessed as cell growth at 3X10'-9 M after 48 hrs by sulforhodamine B assay; settings: MOLT-4, 48 h, read-out: Activity
CAKI-1 = experiment: Growth inhibition of human CAKI-1 cells assessed as cell growth at 3X10'-6 M after 48 hrs by sulforhodamine B assay; settings: CAKI-1, 48 h, read-out: Activity

## COc1cc(-c2nn(-c3cccc(NC(=O)c4ccccc4)c3)cc2-c2ccncc2)ccc1Cl
KM12
  growth at 0.1 µM: 91%
SR
  growth at 0.1 µM: 79%
MOLT-4 [1]
  growth at 0.1 µM: 99%
HL-60(TB)
  growth at 0.1 µM: 100%
MDA-MB-231
  growth at 0.01 µM: 103%
Malme-3M
  growth at 100 µM: 20%
SF-295
  growth at 100 µM: -46%
OVCAR-5 [2]
  growth at 0.01 µM: 95%
SK-MEL-2
  growth at 0.01 µM: 93%
LOX IMVI
  growth at 0.01 µM: 94%
SNB-19
  growth at 0.01 µM: 99%
HT-29
  growth at 0.01 µM: 98%
[3]
  growth at 0.01 µM: 97%
HOP-62
  growth at 0.01 µM: 94%
RPMI-8226
  growth at 100 µM: 21%
DU-145 [4]
  growth at 10 µM: 13%
ACHN
  growth at 10 µM: 26%
[5]
  growth at 10 µM: 5%
SK-MEL-5
  growth at 10 µM: -60%
SF-268 [6]
  growth at 10 µM: 24%
SW-620
  growth at 10 µM: 23%
NCI-H23
  growth at 10 µM: 21%
CCRF-CEM
  growth at 10 µM: 6%
SF-268 [7]
  growth at 1 µM: 47%
A549
  growth at 1 µM: 37%
MOLT-4 [8]
  growth at 1 µM: 41%

## O=C(Nc1cccc(-n2cc(-c3ccncc3)c(-c3ccc(Cl)c(O)c3)n2)c1)Nc1ccc(Cl)c(C(F)(F)F)c1
PC-3
  growth at 0.03 µM: 89%
OVCAR-5 [9]
  growth at 0.03 µM: 85%
SK-MEL-28
  growth at 0.03 µM: 97%
NCI-H460
  growth at 0.03 µM: 100%
BT-549
  growth at 0.003 µM: 102%
DU-145 [10]
  growth at 0.003 µM: 101%
SK-OV-3
  growth at 0.003 µM: 102%
UACC-62
  growth at 30 µM: -83%
MCF7
  growth at 3 µM: 2%
MOLT-4 [11]
  growth at 0.003 µM: 110%
CAKI-1
  growth at 3 µM: -9%

## COc1cc(-c2nn(-c3cccc(NC(=O)c4ccc(N5CCOCC5)c(C(F)(F)F)c4)c3)cc2-c2ccncc2)ccc1Cl
KM12
  growth at 0.1 µM: 64%
SR
  growth at 0.1 µM: 19%
MOLT-4 [1]
  growth at 0.1 µM: 105%
HL-60(TB)
  growth at 0.1 µM: 73%
MDA-MB-231
  growth at 0.01 µM: 95%
Malme-3M
  growth at 100 µM: -24%
SF-295
  growth at 100 µM: -72%
OVCAR-5 [2]
  growth at 0.01 µM: 95%
SK-MEL-2
  growth at 0.01 µM: 111%
LOX IMVI
  growth at 0.01 µM: 98%
SNB-19
  growth at 0.01 µM: 92%
HT-29
  growth at 0.01 µM: 98%
[3]
  growth at 0.01 µM: 101%
HOP-62
  growth at 0.01 µM: 96%
RPMI-8226
  growth at 100 µM: 6%
DU-145 [4]
  growth at 10 µM: 13%
ACHN
  growth at 10 µM: 2%
[5]
  growth at 10 µM: 2%
SK-MEL-5
  growth at 10 µM: -55%
SF-268 [6]
  growth at 10 µM: 12%
SW-620
  growth at 10 µM: 17%
NCI-H23
  growth at 10 µM: 4%
CCRF-CEM
  growth at 10 µM: 5%
SF-268 [7]
  growth at 1 µM: 41%
A549
  growth at 1 µM: 31%
MOLT-4 [8]
  growth at 1 µM: 38%

## COc1cc(-c2nn(-c3cccc(NC(=O)Nc4ccc(Cl)c(C(F)(F)F)c4)c3)cc2-c2ccncc2)ccc1Cl
PC-3
  growth at 0.03 µM: 95%
OVCAR-5 [9]
  growth at 0.03 µM: 89%
SK-MEL-28
  growth at 0.03 µM: 95%
NCI-H460
  growth at 0.03 µM: 102%
BT-549
  growth at 0.003 µM: 103%
DU-145 [10]
  growth at 0.003 µM: 102%
SK-OV-3
  growth at 0.003 µM: 105%
UACC-62
  growth at 30 µM: -73%
MCF7
  growth at 3 µM: 5%
MOLT-4 [11]
  growth at 0.003 µM: 104%
CAKI-1
  growth at 3 µM: 4%

## O=C(Nc1cccc(-n2cc(-c3ccncc3)c(-c3ccc(Cl)c(O)c3)n2)c1)Nc1cccc(C(F)(F)F)c1
PC-3
  growth at 0.03 µM: 96%
OVCAR-5 [9]
  growth at 0.03 µM: 100%
SK-MEL-28
  growth at 0.03 µM: 100%
NCI-H460
  growth at 0.03 µM: 101%
BT-549
  growth at 0.003 µM: 91%
DU-145 [10]
  growth at 0.003 µM: 101%
SK-OV-3
  growth at 0.003 µM: 98%
UACC-62
  growth at 30 µM: -67%
MCF7
  growth at 3 µM: 26%
MOLT-4 [11]
  growth at 0.003 µM: 97%
CAKI-1
  growth at 3 µM: 35%

## O=C(Nc1cccc(-n2cc(-c3ccncc3)c(-c3ccc(Cl)c(O)c3)n2)c1)Nc1ccc(Cl)c(Cl)c1
PC-3
  growth at 0.03 µM: 98%
OVCAR-5 [9]
  growth at 0.03 µM: 96%
SK-MEL-28
  growth at 0.03 µM: 102%
NCI-H460
  growth at 0.03 µM: 105%
BT-549
  growth at 0.003 µM: 99%
DU-145 [10]
  growth at 0.003 µM: 104%
SK-OV-3
  growth at 0.003 µM: 96%
UACC-62
  growth at 30 µM: -53%
MCF7
  growth at 3 µM: 8%
MOLT-4 [11]
  growth at 0.003 µM: 98%
CAKI-1
  growth at 3 µM: 17%

## COc1cc(-c2nn(-c3cccc(NC(=O)c4ccc(Cl)c(C(F)(F)F)c4)c3)cc2-c2ccncc2)ccc1Cl
PC-3
  growth at 0.03 µM: 92%
OVCAR-5 [9]
  growth at 0.03 µM: 96%
SK-MEL-28
  growth at 0.03 µM: 100%
NCI-H460
  growth at 0.03 µM: 104%
BT-549
  growth at 0.003 µM: 96%
DU-145 [10]
  growth at 0.003 µM: 100%
SK-OV-3
  growth at 0.003 µM: 100%
UACC-62
  growth at 30 µM: 20%
MCF7
  growth at 3 µM: 42%
MOLT-4 [11]
  growth at 0.003 µM: 100%
CAKI-1
  growth at 3 µM: 44%
